{"source": "patent US6410596B1", "about": "(Insmed Incorporated, priority 2000, dated 2002)", "key": {"[1]": {"tested_on": "C57BL/ks diabetic (db/db) mice", "test": "Plasma glucose lowering in diabetic db/db mice", "assay_type": "in vivo", "settings": "for Change in Glucose 6 H: 125 mg/kg q.d. oral (0, 24, 48 h), 6 h after initial dose, Table 8 experiment (FIG. 5)", "experimental": "(§1) Genetically altered obese diabetic mice (designated C57BL/ks diabetic or db/db) were purchased from the Jackson Laboratory (Bar Harbor, Me., USA), and served as experimental animals. Male animals between the ages of 8-9 weeks were employed in the studies described here. Animals were housed (4 mice/cage) under standard laboratory conditions at 22° C. and 50% relative humidity, and were maintained on a diet of Purina rodent chow and water ad libitum. Prior to treatment, blood was collected from the tail vein of each a nimal. Mice that had plasma glucose levels between 350 and 600 mg/dL were used. Each treatment group consisted of eight mice that were distributed so that the mean glucose levels were equivalent in each group at the start of the study. Db/db mice received, orally by gavage: the experimental compound administered at 62.5, 125, or 250 mg/kg/day (unless otherwise noted), or metformin administered at […] for 1-3 days, Test compounds were delivered in a liquid vehicle containing 0.25% (w/v) carboxymethyl-cellulose, 1% (v/v) Tween 60® (polyoxyethylene sorbitan monosterate), and up to 10% (v/v) dimethyl sulfoxide (DMSO) in a volume of 10 ml/kg. Blood was sampled from the tail vein at three hours, six, eight, twenty-four, and thirty hours post-administration (the first administration) of the particular compound in non-fasted conditions. Experiments 3-5 also sampled blood at fifty-four hours post-administration (the first administration) of the particular compound in non-fasted conditions. Blood samples were analyzed for plasma glucose levels. Individual body weights and mean food consumption (each cage) were also measured daily.\nThe isolated test substances were prepared as described previously (vide supra). Metformin (1,1-dimethylbiguanide), carboxymethyl cellulose and Tween 60 were purchased from Sigma Chemical Co. (St. Louis, Mo., USA; catalog #'s D-5035, C-4888, and p-1629, respectively). Plasma glucose levels were determined […] using glucose oxidase (Sigma Chemical Co.; Sigma catalog #315). Significant differences between groups (comparing compound-treated to vehicle-treated) were evaluated using analysis of variance and Fisher's post-hoc test. […]"}, "[2]": {"test": "Body weights and food consumption in diabetic db/db mice", "assay_type": "in vivo", "experimental": "as §1"}, "[3]": {"settings": "125 mg/kg oral, Table 10 experiment"}, "[4]": {"settings": "125 mg/kg, Table 10/11 experiment"}, "[5]": {"settings": "125 mg/kg oral, Table 8 experiment"}}, "data": [{"compound": "5-hydroxy-3-methoxy-2-(3-methyl-2-butenyl)stilbene [Compound A]", "values": [{"measurement": "mean glucose levels declined from the baseline values", "setting": "[1]; decline, 62.5 mg/kg, 30 h after initial dosing, Tables 4/6 experiment", "result": 40.7, "unit": "mg/dL"}, {"measurement": "mean glucose levels declined from the baseline values", "setting": "[1]; decline, 125 mg/kg, 30 h after initial dosing, Tables 4/6 experiment", "result": 69.7, "unit": "mg/dL"}, {"measurement": "mean glucose levels declined from the baseline values", "setting": "[1]; decline, 250 mg/kg (also metformin 250 mg/kg), 30 h after initial dosing, Tables 4/6 experiment", "result": 221.4, "unit": "mg/dL"}]}, {"compound": "CN(C)C(=N)N=C(N)N", "note": "[Metformin, 1,1-dimethylbiguanide, reference compound]", "values": [{"measurement": "Food Intake 0-48 h", "setting": "[2]; 250 mg/kg, Table 5", "result": 5.1, "unit": "g/mouse"}, {"measurement": "Body weight (mean) 0 h", "setting": "[2]; 250 mg/kg, Table 5", "result": "37.3 ± 0.7", "unit": "g/mouse"}, {"measurement": "Body weight (mean) 48 hr", "setting": "[2]; 250 mg/kg, Table 5", "result": "37.2 ± 0.6", "unit": "g/mouse"}]}, {"compound": "COc1cc(/C=C/c2ccccc2)c(C(=O)O)c(O)c1CC=C(C)C", "note": "[Compound C, 3-hydroxy-4-(3-methyl-2-butenyl)-5-methoxystilbene-2-carboxylic acid]", "values": [{"measurement": "effect on food intake or body weight", "setting": "[2]; 62.5 mg/kg, 125 mg/kg, and 250 mg/kg, Tables 4/6 experiment", "result": "absence of any significantly adverse effect on food intake or body weight"}, {"measurement": "effect on food intake or body weight", "setting": "[2]; 250 mg/kg, FIG. 2 experiment", "result": "absence of any significantly adverse effect on food intake or body weight"}, {"measurement": "food intake versus normal food intake range (5-6 g/day/mouse)", "setting": "[2]; 250 mg/kg, FIG. 2 experiment", "result": "less than that of the normal food intake range"}, {"measurement": "food intake versus normal food intake range (5-6 g/day/mouse)", "setting": "[2]; 250 mg/kg, Tables 4/6 experiment", "result": "less than that of the normal food intake range"}, {"measurement": "hypoglycemic effect relative to vehicle", "setting": "[1]; 250 mg/kg oral, FIG. 2 experiment", "result": "statistically significant reduction in plasma glucose"}, {"measurement": "hypoglycemic effect relative to vehicle", "setting": "[1]; 62.5, 125, and 250 mg/kg oral, Tables 4/6 experiment", "result": "statistically significant reduction in plasma glucose"}, {"measurement": "mean glucose levels declined from the baseline value", "setting": "[1]; decline, 125 mg/kg, 54 h after initial dosing, Tables 4/6 experiment", "result": 60.4, "unit": "mg/dL"}, {"measurement": "mean glucose levels declined from the baseline values", "setting": "[1]; decline, 250 mg/kg (also metformin 250 mg/kg), 54 h after initial dosing, Tables 4/6 experiment", "result": 122.0, "unit": "mg/dL"}]}, {"compound": "COc1cc(O)cc(CCc2ccccc2)c1CCC(C)C", "note": "[Compound F]", "values": [{"measurement": "Food Intake 0-48 h", "setting": "[2]; 125 mg/kg, Table 11", "result": 5.8, "unit": "g/mouse"}, {"measurement": "Body weight (mean) 0 h", "setting": "[2]; 125 mg/kg, Table 11", "result": "39.3 ± 0.8", "unit": "g/mouse"}, {"measurement": "Body weight (mean) 48 hr", "setting": "[2]; 125 mg/kg, Table 11", "result": "39.8 ± 0.8", "unit": "g/mouse"}, {"measurement": "hypoglycemic effect relative to vehicle", "setting": "[1]; [3]", "result": "statistically significant reduction in plasma glucose"}]}, {"compound": "COc1cc(/C=C/c2ccccc2)cc(O)c1CC=C(C)C", "note": "[Compound D, 3-hydroxy-5-methoxy-4-(3-methyl-2-butenyl)stilbene]", "values": [{"measurement": "Food Intake 0-48 h", "setting": "[2]; 125 mg/kg, Table 11", "result": 5.7, "unit": "g/mouse"}, {"measurement": "Body weight (mean) 0 h", "setting": "[2]; 125 mg/kg, Table 11", "result": "39.3 ± 0.6", "unit": "g/mouse"}, {"measurement": "Body weight (mean) 48 hr", "setting": "[2]; 125 mg/kg, Table 11", "result": "39.7 ± 0.7", "unit": "g/mouse"}, {"measurement": "hypoglycemic effect relative to vehicle", "setting": "[1]; [3]", "result": "statistically significant reduction in plasma glucose"}]}, {"compound": "COc1cc(O)cc(CCc2ccccc2)c1CC=C(C)C", "note": "[Compound E]", "values": [{"measurement": "Food Intake 0-48 h", "setting": "[2]; 125 mg/kg, Table 11", "result": 5.7, "unit": "g/mouse"}, {"measurement": "Body weight (mean) 0 h", "setting": "[2]; 125 mg/kg, Table 11", "result": "39.6 ± 0.3", "unit": "g/mouse"}, {"measurement": "Body weight (mean) 48 hr", "setting": "[2]; 125 mg/kg, Table 11", "result": "40.2 ± 0.4", "unit": "g/mouse"}, {"measurement": "effect on food intake or body weight", "setting": "[2]; 125 mg/kg, Table 8 experiment", "result": "absence of any significantly adverse effect on food intake or body weight"}, {"measurement": "effect on food intake or body weight", "setting": "[2]; [4]", "result": "absence of any significantly adverse effect on food intake or body weight"}, {"measurement": "hypoglycemic effect relative to vehicle", "setting": "[1]; [5]", "result": "statistically significant reduction in plasma glucose"}, {"measurement": "hypoglycemic effect relative to vehicle", "setting": "[1]; [3]", "result": "statistically significant reduction in plasma glucose"}, {"measurement": "Change in Glucose 6 H", "setting": "[1]", "result": -2.1, "unit": "mg/dL"}]}, {"compound": "COc1cc(O)cc(CCc2ccccc2)c1", "note": "[Compound G, 3-hydroxy-5-methoxybibenzene]", "values": [{"measurement": "effect on food intake or body weight", "setting": "[2]; 125 mg/kg, Table 8 experiment", "result": "absence of any significantly adverse effect on food intake or body weight"}, {"measurement": "effect on food intake or body weight", "setting": "[2]; [4]", "result": "absence of any significantly adverse effect on food intake or body weight"}, {"measurement": "hypoglycemic effect relative to vehicle", "setting": "[1]; [5]", "result": "statistically significant reduction in plasma glucose"}, {"measurement": "Change in Glucose 6 H", "setting": "[1]", "result": 35.0, "unit": "mg/dL"}]}]}
